The results in this text go back to patent publication US20130018033A1, “RAF INHIBITOR COMPOUNDS AND METHODS OF USE THEREOF” (ARRAY BIOPHARMA INC., priority 2009, published 2013).

Test [1] relates to basal ERK1/2 phosphorylation in Malme-3M cells. Put plainly: Cellular ERK 1/2 phosphorylation assay (Example A1). It counts as cell-based. Conditions: Homo sapiens, 1 hour incubation, pERK normalized to total ERK, read-out: P-ERK Malme3-M IC50. The method, then:
Inhibition of basal ERK1/2 phosphorylation was determined by the following in vitro […], which comprises incubating cells with a compound of Formula I for 1 hour and quantifying the fluorescent pERK signal on fixed cells and normalizing to total ERK signal.
Malme-3M cells were obtained from ATCC and grown in RPMI-1640 supplemented with 10% fetal bovine serum. Cells were plated in 96-well plates at 24,000 cells/well and allowed to attach for 16-20 hours at 37° C., 5% CO2. The media was removed, and DMSO-diluted compounds were added in RPMI-1640 at a final concentration of 1% DMSO. The cells were incubated with the compounds for 1 hour at 37° C., 5% CO2. The cells were washed with PBS and fixed in 3.7% formaldehyde in PBS for 15 minutes. This was followed by washing in PBS/0.05% Tween20 and permeabilizing in −20° C. 100% MeOH for 15 minutes. Cells were washed in PBS/0.05% Tween20 then blocked in Odyssey blocking buffer (LI-COR Biosciences) for 1 hour. Antibodies to phosphorylated ERK (1:400, Cell Signaling #9106, monoclonal) and total ERK (1:400, Santa Cruz Biotechnology #sc-94, polyclonal) were added to the cells and incubated 16-20 hours at 4° C. After washing with PBS/0.05% Tween20, the cells were incubated with fluorescently-labeled secondary antibodies (1:1000 goat anti-rabbit IgG-IRDye800, Rockland and 1:500 goat anti-mouse IgG-Alexa Fluor 680, Molecular Probes) for an additional hour. Cells were then washed and analyzed for fluorescence at both wavelengths using the Odyssey Infrared Imaging System (LI-COR Biosciences). Phosphorylated ERK signal was normalized to total ERK signal.

Another test deals with T1, V600E full-length B-Raf (Homo sapiens, UniProt P15056, V600E).
T1 construct: 1 μM FSBA-MEK and 20 nM V600E full-length B-Raf; made in house; host or cells: Sf9 insect cells (baculovirus)
Put plainly: B-Raf IC50 assay (Example A). It counts as biochemical. The source says: Determining the activity of Raf in the sample is possible by a number of direct and indirect detection methods (US 2004/0082014). Activity of human recombinant B-Raf protein may be assessed in vitro by assay of the incorporation of radio labeled phosphate to recombinant MAP kinase (MEK), a known physiologic substrate of B-Raf, according to US 2004/0127496 and WO 03/022840. The activity/inhibition of V600E full-length B-Raf was estimated by measuring the incorporation of radio labeled phosphate from [γ-^33P]ATP into FSBA-modified wild-type MEK (see Example A).
Activity of human recombinant B-Raf protein may be assessed in vitro by assay of the incorporation of radio labeled phosphate to recombinant MAP kinase (MEK), a known physiologic substrate of B-Raf, according to US 2004/0127496 and WO 03/022840. Catalytically active human recombinant B-Raf protein is obtained by purification from sf9 insect cells infected with a human B-Raf recombinant baculovirus expression vector.
The activity/inhibition of V600E full-length B-Raf was estimated by measuring the incorporation of radio labeled phosphate from [γ-^33P]ATP into FSBA-modified wild-type MEK. The 30-μL assay mixtures contained 25 mM Na Pipes, pH 7.2, 100 mM KCl, 10 mM MgCl2, 5 mM β-glycerophosphate, […], 4 μM ATP, 500 nCi [γ-^33P]ATP, 1 μM FSBA-MEK and 20 nM V600E full-length B-Raf. Incubations were carried out at 22° C. in a Costar 3365 plate (Corning). Prior to the assay, the B-Raf and FSBA-MEK were preincubated together in assay buffer at 1.5×(20 μL of 30 nM and 1.5 μM, respectively) for 15 minutes, and the assay was initiated by the addition of 10 μL of 10 μM ATP. Following the 60-minute incubation, the assay mixtures were quenched by the addition of 100 μL of 25% TCA, the plate was mixed on a rotary shaker for 1 minute, and the product was captured on a Perkin-Elmer GF/B filter plate using a Tomtec Mach III Harvester. After sealing the bottom of the plate, 35 μL of Bio-Safe II (Research Products International) scintillation cocktail were added to each well and the plate was top-sealed and counted in a Topcount NXT (Packard).

[2] abbreviates: B-Raf V600E assay of Example A, read-out: IC50.
Setting [3] is: [γ-33P]ATP incorporation into FSBA-MEK, 4 μM ATP, read-out: BRAF V600E IC50.

Usually IC50 stands for the point on the concentration scale where inhibition reaches its midpoint.

Like-named read-outs stand apart in the source and are kept apart here.

T1 sequence (P15056 whole entry V600E): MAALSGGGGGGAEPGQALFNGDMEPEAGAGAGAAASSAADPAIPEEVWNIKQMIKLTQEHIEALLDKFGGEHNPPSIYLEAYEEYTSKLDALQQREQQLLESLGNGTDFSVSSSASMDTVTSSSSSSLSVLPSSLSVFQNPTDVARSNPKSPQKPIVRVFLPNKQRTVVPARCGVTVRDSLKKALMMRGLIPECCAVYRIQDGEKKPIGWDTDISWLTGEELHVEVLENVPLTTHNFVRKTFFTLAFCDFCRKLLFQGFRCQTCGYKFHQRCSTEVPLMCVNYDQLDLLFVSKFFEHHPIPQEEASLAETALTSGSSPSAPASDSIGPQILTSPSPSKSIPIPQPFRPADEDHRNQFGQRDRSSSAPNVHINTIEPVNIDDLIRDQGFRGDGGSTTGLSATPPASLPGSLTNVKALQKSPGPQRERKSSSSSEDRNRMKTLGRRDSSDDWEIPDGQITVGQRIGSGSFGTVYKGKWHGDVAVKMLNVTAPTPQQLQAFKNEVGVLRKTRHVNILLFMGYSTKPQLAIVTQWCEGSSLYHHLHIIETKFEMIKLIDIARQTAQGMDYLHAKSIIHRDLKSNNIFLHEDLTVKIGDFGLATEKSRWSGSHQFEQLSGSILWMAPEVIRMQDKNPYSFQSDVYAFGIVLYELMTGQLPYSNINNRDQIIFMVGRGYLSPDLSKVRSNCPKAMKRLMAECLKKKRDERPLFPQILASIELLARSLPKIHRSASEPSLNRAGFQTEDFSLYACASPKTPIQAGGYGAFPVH

In the case of `CC(C)CS(=O)(=O)Nc1ccc(F)c(NC(=O)c2cccc3c(N)ncnc23)c1F` [Example 12, 4-Amino-quinazoline-8-carboxylic acid [2,6-difluoro-3-(2-methyl-propane-1-sulfonylamino)-phenyl]-amide], the half-maximal inhibitory concentration (IC50) in test [1] is 8.54 nM; at V600E full-length B-Raf (setting [2]), less than 100 nM; on V600E full-length B-Raf (setting [3]), 1.55 nM.

Consider `CN(C)S(=O)(=O)Nc1ccc(F)c(NC(=O)c2cccc3c(N)ncnc23)c1Cl` [Example 39, 4-Amino-N-(2-chloro-3-(N,N-dimethylsulfamoylamino)-6-fluorophenyl)quinazoline-8-carboxamide], for which the values for the IC50 (in test [1]; at V600E full-length B-Raf (setting [2]); on V600E full-length B-Raf (setting [3])) were 32.7 nM, less than 100 nM and 7.5 nM, respectively.

Turning to `CCCS(=O)(=O)Nc1cc(F)cc(NC(=O)c2cccc3c(N)ncnc23)c1F` [Example 11, 4-Amino-quinazoline-8-carboxylic acid [2,5-difluoro-3-(propane-1-sulfonylamino)-phenyl]-amide], the IC50 in test [1] was 45 nM; at V600E full-length B-Raf (setting [2]), less than 100 nM; on V600E full-length B-Raf (setting [3]), 4.13 nM.

As for `CCCS(=O)(=O)Nc1cccc(NC(=O)c2cccc3c(N)ncnc23)c1C#N` [Example 30, 4-Amino-quinazoline-8-carboxylic acid [2-cyano-3-(propane-1-sulfonylamino)-phenyl]-amide], the figures for the IC50 (in test [1]; at V600E full-length B-Raf (setting [2]); at V600E full-length B-Raf (setting [3])) were 7.1 nM, less than 100 nM and 0.08 nM, respectively.

On to `CCCS(=O)(=O)Nc1cccc(NC(=O)c2cccc3c(N)ncnc23)c1F` [Example 8, 4-Amino-quinazoline-8-carboxylic acid [2-fluoro-3-(propane-1-sulfonylamino)-phenyl]-amide], for which the IC50 in test [1] is 32.6 nM; on V600E full-length B-Raf (setting [2]), less than 100 nM; at V600E full-length B-Raf (setting [3]), 10.8 nM.

In the case of `Nc1ncnc2c(C(=O)Nc3c(F)c(F)cc(NS(=O)(=O)CCCF)c3F)cccc12` [Example 26, 4-Amino-quinazoline-8-carboxylic acid [2,3,6-trifluoro-5-(3-fluoro-propane-1-sulfonylamino)-phenyl]-amide], the figures for the IC50 (in test [1]; at V600E full-length B-Raf (setting [2]); on V600E full-length B-Raf (setting [3])) were 10.8 nM, less than 100 nM and 0.31 nM, respectively.

Regarding `CCCS(=O)(=O)Nc1ccc(F)c(NC(=O)c2ccnc3c(N)ncnc23)c1Cl` [Example 63, 4-Amino-pyrido[3,2-d]pyrimidine-8-carboxylic acid [2-chloro-6-fluoro-3-(propane-1-sulfonylamino)-phenyl]-amide], the IC50 in test [1] was 7.6 nM; at V600E full-length B-Raf (setting [2]), less than 100 nM; at V600E full-length B-Raf (setting [3]), 1.01 nM.

For the compound `CCCS(=O)(=O)Nc1ccc(F)c(NC(=O)c2cc(C)cc3cncnc23)c1F` [Example 79, 6-Methyl-quinazoline-8-carboxylic acid [2,6-difluoro-3-(propane-1-sulfonylamino)-phenyl]-amide], the IC50 in test [1] was 254 nM; on V600E full-length B-Raf (setting [2]), less than 100 nM; at V600E full-length B-Raf (setting [3]), 58.8 nM.

As for `N#Cc1c(NS(=O)(=O)N2CCCC2)ccc(F)c1NC(=O)c1cccc2c(N)ncnc12` [Example 35, 4-Amino-quinazoline-8-carboxylic acid [2-cyano-6-fluoro-3-(pyrrolidine-1-sulfonylamino)-phenyl]-amide], the half-inhibitory concentration (IC50) in test [1] was 7.48 nM; on V600E full-length B-Raf (setting [2]), less than 100 nM; on V600E full-length B-Raf (setting [3]) it was 0.16 nM.

Consider `C#Cc1c(NS(=O)(=O)CCC)ccc(Cl)c1NC(=O)c1cccc2c(N)ncnc12` [Example 31, 4-Amino-quinazoline-8-carboxylic acid [6-chloro-2-ethynyl-3-(propane-1-sulfonylamino)-phenyl]-amide], for which the half-inhibitory concentration (IC50) in test [1] was 42 nM; on V600E full-length B-Raf (setting [2]), less than 100 nM; at V600E full-length B-Raf (setting [3]) it was 0.4 nM.

Turning to `CCCS(=O)(=O)Nc1cccc(NC(=O)c2cccc3c(N)ncnc23)c1Cl` [Example 5, 4-Amino-quinazoline-8-carboxylic acid [2-chloro-3-(propane-1-sulfonylamino)-phenyl]-amide], the values for the 50% inhibitory concentration (IC50) (in test [1]; on V600E full-length B-Raf (setting [2]); at V600E full-length B-Raf (setting [3])) were 40.7 nM, less than 100 nM and 4.77 nM, respectively.

Consider `CC(C)CS(=O)(=O)Nc1ccc(Cl)c(NC(=O)c2cccc3c(N)ncnc23)c1F` [Example 15, 4-Amino-quinazoline-8-carboxylic acid [6-chloro-2-fluoro-3-(2-methyl-propane-1-sulfonylamino)-phenyl]-amide], for which the 50% inhibitory concentration (IC50) in test [1] was 6.08 nM; on V600E full-length B-Raf (setting [2]), less than 100 nM; at V600E full-length B-Raf (setting [3]) it was 0.5 nM.

As to `CCCS(=O)(=O)Nc1cc(Cl)cc(NC(=O)c2cccc3c(N)ncnc23)c1F` [Example 14, 4-Amino-quinazoline-8-carboxylic acid [5-chloro-2-fluoro-3-(propane-1-sulfonylamino)-phenyl]-amide], the IC50 was 381 nM in test [1], less than 100 nM at V600E full-length B-Raf (setting [2]) and 27.9 nM at V600E full-length B-Raf (setting [3]).

As to `O=C(Nc1c(F)ccc(NS(=O)(=O)CC2CC2)c1F)c1cccc2cncnc12` [Example 56, Quinazoline-8-carboxylic acid (3-cyclopropylmethane-sulfonylamino-2,6-difluoro-phenyl)-amide], the values for the IC50 (in test [1]; on V600E full-length B-Raf (setting [2]); at V600E full-length B-Raf (setting [3])) were 638 nM, less than 1000 nM and 204 nM, respectively.

In the case of `CCCS(=O)(=O)Nc1ccc(F)c(NC(=O)c2cccc3c(N)ncnc23)c1` [Example 6, 4-Amino-quinazoline-8-carboxylic acid [2-fluoro-5-(propane-1-sulfonylamino)-phenyl]-amide], the half-maximal inhibitory concentration (IC50) is 1720 nM in test [1], less than 100 nM on V600E full-length B-Raf (setting [2]) and 50.4 nM at V600E full-length B-Raf (setting [3]).

On to `CN(C)S(=O)(=O)Nc1ccc(Cl)c(NC(=O)c2cccc3c(N)ncnc23)c1F` [Example 38, 4-Amino-N-(6-chloro-3-(N,N-dimethylsulfamoylamino)-2-fluorophenyl)quinazoline-8-carboxamide], for which the concentration for half-maximal inhibition (IC50) in test [1] was 28 nM; at V600E full-length B-Raf (setting [2]), less than 100 nM; at V600E full-length B-Raf (setting [3]), 7.01 nM.

For `CCCS(=O)(=O)Nc1cc(F)c(F)c(NC(=O)c2cccc3c(NCCF)ncnc23)c1F` [Example 43, 4-(2-Fluoro-ethylamino)-quinazoline-8-carboxylic acid [2,3,6-trifluoro-5-(propane-1-sulfonylamino)-phenyl]-amide], the 50% inhibitory concentration (IC50) is 2910 nM in test [1], less than 1000 nM at V600E full-length B-Raf (setting [2]) and 293 nM at V600E full-length B-Raf (setting [3]).

Take `Cc1ncnc2c(C(=O)Nc3c(Cl)ccc(NS(=O)(=O)CCCF)c3Cl)cccc12` [Example 60, 4-Methyl-quinazoline-8-carboxylic acid [2,6-dichloro-3-(3-fluoro-propane-1-sulfonylamino)-phenyl]-amide]: the IC50 in test [1] is 53.4 nM; on V600E full-length B-Raf (setting [2]), less than 100 nM; at V600E full-length B-Raf (setting [3]), 0.82 nM.

As for `CCCS(=O)(=O)Nc1ccc(F)c(NC(=O)c2cccc3c(N)ncnc23)c1OC` [Example 4, 4-Amino-quinazoline-8-carboxylic acid [6-fluoro-2-methoxy-3-(propane-1-sulfonylamino)-phenyl]-amide], the values for the 50% inhibitory concentration (IC50) (in test [1]; at V600E full-length B-Raf (setting [2]); on V600E full-length B-Raf (setting [3])) were 433 nM, less than 1000 nM and 191 nM, respectively.
